Results taken from the supplement of paper PMC10307832.

How the values were obtained:
Assay in all cases: relative viability (nuclei count vs DMSO), 5 days (fraction); higher = more cells survive
[1] = compound: COc1cc2c(Oc3ccc4[nH]c(C)cc4c3F)ncnc2cc1OCCCN1CCCC1 [Cediranib] + COc1cc2c(Oc3ccc(NC(=O)C4(C(=O)Nc5ccc(F)cc5)CC4)cc3F)ccnc2cc1OCCCN1CCOCC1 [Foretinib] (partner 0.25 µM)
Method in brief: (§1)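 One day after seeding in 1536-well plates, lung cancer cell lines were dosed by pin tool. Dosing was either single-drug or a fixed anchor-drug dose plus five library-drug doses (not always all listed) in √10 steps. After 5 days, nuclei were stained in one fix-and-stain step and counted on 4× images, and relative viability is the nuclei count of treated wells over that of vehicle wells, given as the median of duplicate plates.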

[2] = compound: O=C(C[C@H]1NCCC[C@@H]1O)Cn1cnc2cc(Br)c(Cl)cc2c1=O (racemic) [Halofuginone] + CC(=O)c1c(C)c2cnc(Nc3ccc(N4CCNCC4)cn3)nc2n(C2CCCC2)c1=O [Palbociclib] (partner 0.5 µM)
Method in brief: as §1

[3] = compound: O=C(C[C@H]1NCCC[C@@H]1O)Cn1cnc2cc(Br)c(Cl)cc2c1=O (racemic) [Halofuginone] + CC(C)C[C@H](NC(=O)[C@H](Cc1ccccc1)NC(=O)c1cnccn1)B(O)O [Bortezomib] (partner 0.002 µM)
Method in brief: as §1

[4] = compound: COc1cc2c(Oc3ccc4[nH]c(C)cc4c3F)ncnc2cc1OCCCN1CCCC1 [Cediranib] + CC1(C)CCC(c2ccc(Cl)cc2)=C(CN2CCN(c3ccc(C(=O)NS(=O)(=O)c4ccc(N[C@H](CCN5CCOCC5)CSc5ccccc5)c(S(=O)(=O)C(F)(F)F)c4)cc3)CC2)C1 [Navitoclax] (partner 0.5 µM)
Method in brief: as §1

Cell Line UMC-11 has a relative viability ([1]; first compound 0.04 µM) of 1.1, a relative viability ([1]; first compound 0.4 µM) of 1.03 and a relative viability ([1]; first compound 4 µM) of 1.05. It also gave a relative viability ([2]; first compound 0.001 µM) of 0.359, a relative viability ([2]; first compound 0.003162 µM) of 0.306 and a relative viability ([2]; first compound 0.01 µM) of 0.322. It also gave a relative viability ([2]; first compound 0.03162 µM) of 0.316, a relative viability ([2]; first compound 0.1 µM) of 0.279 and a relative viability ([3]; first compound 0.001 µM) of 0.683. For the same cell line, the relative viability ([3]; first compound 0.003162 µM) was 0.775, the relative viability ([3]; first compound 0.01 µM) was 0.684 and the relative viability ([3]; first compound 0.03162 µM) was 0.689. The relative viability ([3]; first compound 0.1 µM) was 0.645, the relative viability ([4]; first compound 0.04 µM) was 0.328 and the relative viability ([4]; first compound 0.1265 µM) was 0.293. For the same cell line, the relative viability ([4]; first compound 0.4 µM) was 0.322, the relative viability ([4]; first compound 1.265 µM) was 0.321 and the relative viability ([4]; first compound 4 µM) was 0.359.
